From US8440841B2, “5-pyrrolidinylsulfonyl isatin derivatives” (Universitätsklinikum Münster, priority 2005, dated 2013)

How the values were obtained:
[1] = biological target: T1, recombinant human caspase 3 (Homo sapiens, UniProt P42574); experiment: Caspase inhibition assay, standard fluorometric assay with Ac-DEVD-AMC; format: biochemical; conditions: Ki(app) = IC50/(1 + [S]/KM), [S] = 10 μM Ac-DEVD-AMC, 37° C., pH 7.5
T1 construct: Recombinant full-length human caspase-3 was purified as described previously [21b]; made in house
T1 sequence (P42574 29-175 limits assumed): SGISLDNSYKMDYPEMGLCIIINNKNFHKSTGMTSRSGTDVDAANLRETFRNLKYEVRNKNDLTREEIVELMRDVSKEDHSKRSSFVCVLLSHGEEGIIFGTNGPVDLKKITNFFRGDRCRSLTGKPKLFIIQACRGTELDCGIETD
T1 sequence (P42574 176-277 limits assumed): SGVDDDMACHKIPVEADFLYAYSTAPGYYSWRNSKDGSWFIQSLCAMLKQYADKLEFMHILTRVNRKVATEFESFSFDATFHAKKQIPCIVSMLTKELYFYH
Protocol: The inhibition of recombinant human caspase 3 by twentythree isatin sulfonamides (twenty
Recombinant full-length human caspase-3 was purified as described previously [21b]. […] Enzyme assays were performed in a 200 μl volume at 37° C. in reaction buffer containing 0.1% CHAPS, 50 mM KCl, 5 mM β-mercaptoethanol, 25 mM HEPES (pH 7.5) and nonradioactive isatins in DMSO each in single doses (end concentrations 500 μM, 50 μM, 5 μM, 500 nM, 50 nM, 5 nM, 500 pM, 50 pM or 5 pM). […] After 10 min incubation time Ac-DEVD-AMC (end concentration 10 μM) was added and reacted for further 10 min. […] The IC50-values were determined by non-linear regression analysis using the XMGRACE program (Linux software) and converted into the corresponding Ki-values by the equation Ki=IC50/(1+[S]/KM) assuming competitive inhibition by the isatin derivatives, where [S] is the concentration and KM is the Michaelis constant of substrate Ac-DEVD-AMC.

active caspase-3 = biological target: T2, active caspase-3 (Homo sapiens, UniProt P42574); experiment: Cellular caspase assay: growth factor withdrawal-induced apoptosis in HUVEC, Western blot; format: cell-based; conditions: 8 hours, at 10 μM (FIGS. 1 and 2)
T2 construct: endogenous in cells; host or cells: HUVEC
T2 sequence (P42574 29-175 limits assumed): T1 sequence (P42574 29-175 limits assumed)
T2 sequence (P42574 176-277 limits assumed): T1 sequence (P42574 176-277 limits assumed)
Protocol: In the context of cellular apoptosis assays concentration- and time-dependent kinetics of mentioned CbRs and CbR-transporter conjugates are performed to evaluate the pharmacological inhibition of apoptosis in viable apoptotic cells (e.g. growth factor withdrawal-induced, drug-induced, or ionizing radiation-induced apoptosis in endothelial cells).
HUVEC (Human umbilical vein endothelial cells) were cultivated on gelatine (2%)-coated dishes in RPMI-1640 containing 15% bovine calf serum, 1% Pen/Strep/Amph, 1% Heparin and 0.05 mg/ml bovine pituitary extract (BPE) at 37° C. in 5% CO2. Apoptosis was induced by growth factor withdrawal as previously described. For caspase inhibition experiments, cells were pre-incubated for 30 min with the compounds in the indicated concentrations. The medium was then removed and replaced with RPMI-1640 without serum or BPE, and the cells were incubated in the presence or absence of the various inhibitor concentrations for 8 hours. All cells were then harvested in lysis buffer, incubated for 10 min on ice, and cell debris was removed by centrifugation at 14000 rpm at 4° C. for 10 min. Protein concentration was determined by the Pierce protein assay, and 30 μg cell lysate were loaded on 15% SDS-Page gels and transferred to Immobilon PVDF membranes. Western blots were performed with antibodies to active caspase-3 (Cell Signaling) and developed using ECL (Amersham).
A quantitative (pharmacological) inhibition of before mentioned target caspases with the non-radioactive PET- or SPECT-compatible CbRs of presented invention needs macroscopic amounts of the inhibitor, i.e. concentrations of caspase inhibitor that are definitely more than necessarily needed for molecular imaging purposes.

[2] = Small-animal PET biodistribution after i.v. injection; format: in vivo, WT Mouse (Nu/Nu); conditions: mouse, 180 min p.i.
Protocol: PET was performed using a high-resolution dedicated small-animal PET system (32-module quadHIDAC; Oxford Positron Systems) which uses multiwire chamber detectors with submillimeter-resolution potency. For each data acquisition, up to two mice were placed on a heating pad to maintain a normal body temperature. The animals were anesthetised by inhalation of isoflurane (1.5%) and intravenously injected with approximately 7 MBq of each radiotracer in 100 μL isotonic as well as isohydric solution.
A small-animal PET scan was performed with the quadHIDAC device to trace the in vivo biodistribution behavior of the PET-compatible CbR (S)-1-(4-(2[<18>F]fluoroethoxy)benzyl)-5-[1-(2-methoxymethylpyrrolidinyl)-sulfonyl]isatin [<18>F]VI. Immediately after i.v. injection of [<18>F]VI (A=7MBq, pH=8, A5=48 GBq/[mu]mol, V=100 [mu]1 in sodium bicarbonate buffered saline solution) data acquisition was started. List-mode data were acquired for 180 min and subsequently reconstructed into an image volume of 90×90×120 mm<3>, voxel size 0.4×0.4×0.4 mm<3>, using an iterative reconstruction algorithm (OPL-EM). […] Mentioned hot spot remains even 6 h p.i. (data not shown).

SMILES | melting point | Ki [1] | also measured
C[Si](C)(C)c1ccc(CN2C(=O)C(=O)c3cc(S(=O)(=O)N4CCC[C@H]4COc4ccccc4)ccc32)cc1 [1b, (S)-5-[1-(2-phenoxymethylpyrrolidinyl)sulfonyl]-1-(4-trimethylsilylbenzyl)-isatin] | 128 to 130 °C (dec.) | 0.7 nM | 
O=C1C(=O)N(Cc2ccc(Br)cc2)c2ccc(S(=O)(=O)N3CCC[C@H]3COc3ccccc3)cc21 [1c, (S)-(+)-1-(4-bromobenzyl)-5-[1-(2-phenoxymethylpyrrolidinyl)sulfonyl]isatin] |  | 3 nM | 
COC[C@@H]1CCCN1S(=O)(=O)c1ccc2c(c1)C(=O)C(=O)N2C [II, (S)-5-[1-(2-methoxymethylpyrrolidinyl)sulfonyl]-1-methyl-isatin] | 143 to 144 °C | 2 nM | inhibition of caspase progression (Western blot, active caspase-3) (active caspase-3): recognizable
O=C1C(=O)N(Cc2ccc(O)cc2)c2ccc(S(=O)(=O)N3CCC[C@H]3COc3ccccc3)cc21 [IIIa, (S)-1-(p-hydroxybenzyl)-5-[1-(2-phenoxymethylpyrrolidinyl)sulfonyl]isatin] |  | 3 nM | 
O=C1C(=O)N(Cc2ccc(OCc3ccccc3)cc2)c2ccc(S(=O)(=O)N3CCC[C@H]3COc3ccccc3)cc21 [IIIaa, (S)-(+)-1-(4-benzyloxybenzyl)-5-[1-(2-phenoxymethylpyrrolidinyl)-sulfonyl]isatin] | 69 to 70 °C | 6.9 nM | 
CC(C)(C)[Si](C)(C)Oc1ccc(CN2C(=O)C(=O)c3cc(S(=O)(=O)N4CCC[C@H]4COc4ccccc4)ccc32)cc1 [IIIab, (S)-1-(p-tert-butyldimethylsilyloxybenzyl)-5-[1-(2-phenoxymethylpyrrolidinyl)sulfonyl]-isatin] |  | 20 nM | 
COC[C@@H]1CCCN1S(=O)(=O)c1ccc2c(c1)C(=O)C(=O)N2 [IIa, (S)-5-(1-[2-(methoxymethyl)pyrrolidinyl]-sulfonyl)isatin, reference compound] |  | 77 nM | 
COC[C@@H]1CCCN1S(=O)(=O)c1ccc2c(c1)C(=O)C(=O)N2Cc1ccc(OC)cc1 [IV, (S)-1-(4-methoxybenzyl)-5-[1-(2-methoxymethylpyrrolidinyl)sulfonyl]isatin] |  | 9 nM | inhibition of caspase progression (Western blot, active caspase-3) (active caspase-3): recognizable
COC[C@@H]1CCCN1S(=O)(=O)c1ccc2c(c1)C(=O)C(=O)N2Cc1ccc(O)cc1 [IVa, (S)-1-(p-hydroxybenzyl)-5-[1-(2-methoxymethylpyrrolidinyl)sulfonyl]isatin] |  | 45 nM | 
COC[C@@H]1CCCN1S(=O)(=O)c1ccc2c(c1)C(=O)C(=O)N2Cc1ccc(OCc2ccccc2)cc1 [IVaa, (S)-(+)-1-(4-benzyloxybenzyl)-5-[1-(2-methoxymethylpyrrolidinyl)-sulfonyl]isatin] | 73 to 74 °C | 5 nM | 
COC[C@@H]1CCCN1S(=O)(=O)c1ccc2c(c1)C(=O)C(=O)N2Cc1ccc(O[Si](C)(C)C(C)(C)C)cc1 [IVab, (S)-1-(p-tert-butyldimethylsilyloxybenzyl)-5-[1-(2-methoxymethylpyrrolidinyl)sulfonyl]-isatin] |  | 4 nM | 
O=C1C(=O)N(Cc2ccc(OCCF)cc2)c2ccc(S(=O)(=O)N3CCC[C@H]3COc3ccccc3)cc21 [V, (S)-1-(4-(2-fluoroethoxy)benzyl)-5-[1-(2-phenoxymethylpyrrolidinyl)sulfonyl]isatin] |  | 0.4 nM | 
COC[C@@H]1CCCN1S(=O)(=O)c1ccc2c(c1)C(=O)C(=O)N2Cc1ccc(OCCF)cc1 [VI, (S)-1-(4-(2-fluoroethoxy)benzyl)-5-[1-(2-methoxymethylpyrrolidinyl)sulfonyl]isatin] |  | 36 nM | inhibition of caspase progression (Western blot, active caspase-3) (active caspase-3): recognizable
COC[C@@H]1CCCN1S(=O)(=O)c1ccc2c(c1)C(=O)C(=O)N2Cc1ccc(OCCOS(=O)(=O)c2ccc(C)cc2)cc1 [VIa, (S)-1-(4-(2-(p-methylphenylsulfonyloxy)ethoxy)benzyl)-5-[1-(2-methoxymethylpyrrolidinyl)sulfonyl]isatin] | 61 to 62 °C | 2 nM | 
COC[C@@H]1CCCN1S(=O)(=O)c1ccc2c(c1)C(=O)C(=O)N2Cc1ccc(OCCBr)cc1 [VIaa, (S)-1-(4-(2-bromoethoxy)benzyl)-5-[1-(2-methoxymethylpyrrolidinyl)-sulfonyl]isatin] | 61 to 62 °C | 13 nM | 
Cc1ccc(S(=O)(=O)OCCOc2ccc(CN3C(=O)C(=O)c4cc(S(=O)(=O)N5CCC[C@H]5COc5ccccc5)ccc43)cc2)cc1 [Va, (S)-1-(4-(2-(p-methylphenylsulfonyloxy)ethoxy)benzyl)-5-[1-(2-phenoxymethylpyrrolidinyl)sulfonyl]isatin] |  | 17 nM | 
O=C1C(=O)N(Cc2ccc(OCCBr)cc2)c2ccc(S(=O)(=O)N3CCC[C@H]3COc3ccccc3)cc21 [Vaa, (S)-1-(4-(2-bromoethoxy)benzyl)-5-[1-(2-phenoxymethylpyrrolidinyl)sulfonyl]isatin] | 162 to 163 °C | 25 nM | 
COC[C@@H]1CCCN1S(=O)(=O)c1ccc2c(c1)C(=O)C(=O)N2Cc1ccc(OCC[18F])cc1 [[^18F]VI, (S)-1-(4-(2-[^18F]Fluoroethoxy)benzyl)-5-[1-(2-methoxymethylpyrrolidinyl)-sulfonyl]isatin] |  |  | clearance of radioactivity from peripheral organs (PET) ([2]; 7 MBq, all peripheral organs (FIG. 3)): cleared; remaining radioactivity (PET) ([2]; hot spot (putatively gall bladder) remains even 6 h p.i.): only remains in the bowels and in a hot spot nearby the liver
O=C1C(=O)N(Cc2ccc(I)cc2)c2ccc(S(=O)(=O)N3CCC[C@H]3COc3ccccc3)cc21 [compound 1, (S)-1-(4-iodobenzyl)-5-[1-(2-phenoxymethylpyrrolidinyl)sulfonyl]isatin] | 88 to 90 °C |  | 
COC[C@@H]1CCCN1S(=O)(=O)c1ccc2c(c1)C(=O)C(=O)N2Cc1ccc(I)cc1 [compound 2, (S)-1-(4-iodobenzyl)-5-[1-(2-methoxymethylpyrrolidinyl)sulfonyl]isatin] | 129 to 130 °C | 11 nM | inhibition of caspase progression (Western blot, active caspase-3) (active caspase-3): recognizable
